Read-outs that look alike come from different tables or passages of the source.
Key:
[1] = system: transplanted tumor of human non-small cell lung cancer cell A549; assay: A549 transplanted tumor in nude mice; conditions: for Tumor Volume (mm3) (d 1): d1
Protocol: A549 cells in a logarithmic growth phase were taken and subjected to a trypan blue exclusion experiment showing that the cell viability was more than 95%, then the cells were subjected to trypsinization, centrifugation, and supernatant removal. Then cell concentration was adjusted to 1×10^7/ml with matrigel, then each nude mouse was inoculated subcutaneously with 0.2 ml of cells at its right armpit and recorded as the first day of inoculation. When the tumor grows to be greater than or equal to 100 mm^3, the mice were randomly divided into 11 groups with 6 mice in each group: a model group, a cyclophosphamide group, isovaleryl spiramycin I groups with doses of 25, 50 and 100 mg/kg, isovaleryl spiramycin II groups with doses of 25, 50 and 100 mg/kg, and isovaleryl spiramycin III groups with doses of 25, 50 and 100 mg/kg. Each group was continuously administered intragastrically for 30 days with a dose of 20 ml/kg. The mice were sacrificed the next day after drug withdrawal and the indicators were tested. The long diameter and short diameter of the tumor, and the body weight of each mouse were recorded every 3 days from drug administration to nude mouse sacrifice.
(§1) The body weight of the nude mice and the long diameter (a) and short diameter (b) of the transplanted tumor were measured every 3 days, and the tumor volume (v), relative tumor volume (RTV) and relative tumor proliferation rate (T/C) are calculated respectively according to the following formulas, wherein V=a×b^2/2; RTV=V/V0 (V0 is the tumor volume before administration, V is the tumor volume before sacrifice), and T/C (%)=treatment group RTV/model control group RTV×100%.
(§2) Each mouse was weighed and sacrificed. After the tumor was completely stripped off from the body of the mouse, the non-tumor tissues such as blood stains and fat were removed to weigh the tumor and calculate the tumor growth inhibition rate. The average tumor weight of each group of mice is used as an indicator of efficacy. Tumor growth inhibition rate (%)=(1−the average tumor weight of the treatment group/the average tumor weight of the model group)×100%.

[2] = system: transplanted tumor of human glioblastoma cell A172; conditions: for Tumor Volume (mm3) (d 1): d1
Protocol: Then cell concentration was adjusted to 1×10^7/ml with matrigel, then each nude mouse was inoculated subcutaneously with 0.2 ml of cells at its right armpit and recorded as the first day of inoculation. When the tumor grows to be greater than or equal to 100 mm^3, the mice were randomly divided into 11 groups with 6 mice in each group: a model group, a temozolomide group, […], […], […] Each group was continuously administered intragastrically for 30 days with a dose of 20 ml/kg. The mice were sacrificed the next day after drug withdrawal and the indicators were tested. The long diameter and short diameter of the tumor, and the body weight of each mouse were recorded every 3 days from drug administration to nude mouse sacrifice.
as §1, §2

[3] = A549, high dose (100 mg/kg in method) i.g. 30 days
[4] = A549, low dose (25 mg/kg in method) i.g. 30 days
[5] = A549, medium dose (50 mg/kg in method) i.g. 30 days
[6] = A172, high dose (100 mg/kg in method) i.g. 30 days
[7] = A172, low dose (25 mg/kg in method) i.g. 30 days
[8] = A172, medium dose (50 mg/kg in method) i.g. 30 days

## CO[C@@H]1[C@@H](O[C@@H]2O[C@H](C)[C@@H](O[C@H]3C[C@@](C)(O)[C@@H](OC(=O)CC(C)C)[C@H](C)O3)[C@H](N(C)C)[C@H]2O)[C@@H](CC=O)C[C@@H](C)[C@@H](O[C@H]2CC[C@H](N(C)C)[C@@H](C)O2)/C=C/C=C/C[C@@H](C)OC(=O)C[C@H]1O [Isovaleryl spiramycin I, isovaleryl spiramycin I]
[1]; [3]
  Relative Tumor Proliferation Rate (T/C): 28.35%
  tumor growth inhibition rate: 69.52%
[1]; [4]
  Relative Tumor Proliferation Rate (T/C): 67.18%
  tumor growth inhibition rate: 24.00%
[1]; A549, low, medium and high doses, P<0.05
  tumor volume and relative tumor volume compared with the model group: significantly lower
[1]; [5]
  Relative Tumor Proliferation Rate (T/C): 41.93%
  tumor growth inhibition rate: 58.10%
[1]; A549 nude mice, 25 mg/kg
  Inhibition Rate (%): 24.00%
  Relative Tumor Proliferation Rate (T/C): 67.18%
  Relative Tumor Volume (RTV): 10.91 ± 2.63
  Tumor Weight: 1.82 ± 0.19 g
  Tumor Volume (mm3) (d 1): 111.89 ± 12.17 mm3
  Tumor Volume (mm3) (d30): 1227.24 ± 329.84 mm3
[1]; A549 nude mice, 50 mg/kg
  Inhibition Rate (%): 58.10%
  Relative Tumor Proliferation Rate (T/C): 39.42%
  Relative Tumor Volume (RTV): 6.40 ± 1.75
  Tumor Weight: 1.00 ± 0.44 g
  Tumor Volume (mm3) (d 1): 119.73 ± 5.73 mm3
  Tumor Volume (mm3) (d30): 750.44 ± 220.77 mm3
[1]; A549 nude mice, 100 mg/kg
  Inhibition Rate (%): 69.52%
  Relative Tumor Proliferation Rate (T/C): 28.35%
  Relative Tumor Volume (RTV): 4.60 ± 3.69
  Tumor Weight: 0.73 ± 0.45 g
  Tumor Volume (mm3) (d 1): 110.27 ± 11.43 mm3
  Tumor Volume (mm3) (d30): 475.83 ± 355.37 mm3
[1]; mouse, in vivo
  mouse weight compared with the model group: no significant changes
[1]; mouse, in vivo, 25 mg/kg
  Body Weight (g) (d1): 21.54 ± 1.27 g
  Body Weight (g) (d30): 24.20 ± 1.33 g
[1]; mouse, in vivo, 50 mg/kg
  Body Weight (g) (d1): 21.48 ± 1.46 g
  Body Weight (g) (d30): 25.56 ± 1.67 g
[1]; mouse, in vivo, 100 mg/kg
  Body Weight (g) (d1): 21.36 ± 1.82 g
  Body Weight (g) (d30): 24.47 ± 1.98 g
[2]; [6]
  Relative Tumor Proliferation Rate (T/C): 25.16%
  tumor growth inhibition rate: 68.79%
[2]; [7]
  Relative Tumor Proliferation Rate (T/C): 74.49%
  tumor growth inhibition rate: 30.75%
[2]; A172, low, medium and high doses, P<0.05
  tumor volume and relative tumor volume compared with the model group: significantly lower
[2]; [8]
  Relative Tumor Proliferation Rate (T/C): 43.43%
  tumor growth inhibition rate: 44.26%
[2]; A172 nude mice, 12.5 mg/kg
  Inhibition Rate (%): 30.75%
  Relative Tumor Proliferation Rate (T/C): 74.49%
  Relative Tumor Volume (RTV): 12.69 ± 1.08
  Tumor Weight: 0.96 ± 0.08 g
  Tumor Volume (mm3) (d 1): 120.36 ± 10.15 mm3
  Tumor Volume (mm3) (d30): 1519.32 ± 71.53 mm3
[2]; A172 nude mice, 25 mg/kg
  Inhibition Rate (%): 44.26%
  Relative Tumor Proliferation Rate (T/C): 43.43%
  Relative Tumor Volume (RTV): 10.67 ± 1.08
  Tumor Weight: 0.77 ± 0.09 g
  Tumor Volume (mm3) (d 1): 121.90 ± 10.10 mm3
  Tumor Volume (mm3) (d30): 889.01 ± 195.61 mm3
[2]; A172 nude mice, 50 mg/kg
  Inhibition Rate (%): 68.79%
  Relative Tumor Proliferation Rate (T/C): 25.16%
  Relative Tumor Volume (RTV): 10.05 ± 0.71
  Tumor Weight: 0.43 ± 0.07 g
  Tumor Volume (mm3) (d 1): 122.38 ± 6.44 mm3
  Tumor Volume (mm3) (d30): 513.12 ± 89.49 mm3
[2]; mouse, in vivo
  mouse weight compared with the model group: no significant changes
[2]; mouse, in vivo, 12.5 mg/kg
  Body Weight (g) (d1): 21.06 ± 0.43 g
  Body Weight (g) (d30): 20.34 ± 0.17 g
[2]; mouse, in vivo, 25 mg/kg
  Body Weight (g) (d1): 20.98 ± 0.73 g
  Body Weight (g) (d30): 20.93 ± 0.54 g
[2]; mouse, in vivo, 50 mg/kg
  Body Weight (g) (d1): 21.00 ± 0.65 g
  Body Weight (g) (d30): 20.88 ± 0.58 g

— US20200163984A1, “USE OF ISOVALERYL SPIRAMYCIN I, II AND/OR III IN MANUFACTURING MEDICAMENT FOR TREATING AND/OR PREVENTING TUMOR, AND MEDICAMENT” (SHENYANG FUYANG PHARMACEUTICAL TECHNOLOGY CO., LTD., priority 2017, published 2020)
